Source: patent publication US20130041005A1, “PHARMACEUTICAL COMPOSITIONS COMPRISING NEUROPILIN INHIBITORS, AND THEIR USE FOR THE PREVENTION AND/OR TREATMENT OF ANGIOGENIC DISORDERS AND CANCERS” (TRAGEX PHARMA, priority 2011, published 2013)
“Also recorded” adds a separate entry of the source.

Assays:
Type in all cases: cell-based
HUVEC cells = assay: Tube formation assay; conditions: HUVEC on collagen, IC50 concentration (FIGS. 1D, 3B)
Procedure: Collagen type I (1 mg/ml, BD) was mixed with 0.1N NaOH, 0.1% bicarbonate and 10× in medium EBM-2 and kept on ice until placed into the wells. The assay was prepared in 96-well plate format and the bottom layer of collagen was formed by adding 70 μL of the solution per well and allowing subsequent gelation at 37° C. for 30 min. The HUVEC cells were then seeded on collagen at […] cells per well. After monolayer formation (one day), a second layer of collagen 200 μL per well was prepared according to the same protocol and gently placed on top of the cell layer. The compounds of the invention were added to the cells at the adhesion step (concentration corresponding to the Inhibitory Concentration 50 (IC50)). After 24 and 48 h of incubation at 37° C., tube formation was observed and pictures were taken.

ERY-1 = assay: WST-1 proliferation assay, ERY-1; conditions: Homo sapiens; Erythroleukemia ERY-1; read-out: Anti-proliferative activity IC50 (μM) ± SD
Procedure: (§1) All the cancer cell lines were maintained in cultured in DMEM GlutaMAX™ (GIBCO Invitrogen, France, cat no 31966047) enhanced with 10% foetal bovine serum (GIBCO Invitrogen, France, cat no 10270-106) and 1% penicillin G/streptomycin (GIBCO Invitrogen, France, cat no 15140-122). Only Panc-10.5 cells were cultivated in RPMI 1640 medium (Gibco) supplemented with 2 mM L-glutamine, 1.5 g/L sodium bicarbonate, 4.5 g/L glucose, 10 mM HEPES, 1 mM sodium pyruvate, 10 Units/ml human insulin, […] (SVF): 15% (75 ml in 500 ml of medium).
(§2) Cells were grown as subconfluent monolayer and cultured in 75 cm^2 flasks at 37° C., 5% CO2 in a humidified atmosphere, and medium was changed every two days. […]
(§3) The cell proliferation WST-1 assay is a colorimetric assay for the quantification of cell proliferation and viability, based on the enzymatic cleavage of the tetrazolium salt WST-1 added to the culture medium, to a water soluble colored formazan dye, detected by absorbance at 450 nm, by mitochondrial succinate-tetrazolium reductase in viable cells. […]
(§4) After an incubation period of 72 h, at day 4, were prepared the 19 ml medium with reagent WST-1 1 ml ([…]). […] The cells were incubated at 37° C. in a humidified atmosphere of 5% CO2 for 1 h 30 and the absorbance at 450-655 nm was measured by Microplate Manager 5.2 (Bio-Rad).

BT-474 = assay: WST-1 proliferation assay, BT-474; conditions: Homo sapiens; Breast BT-474, 72 h; read-out: Anti-proliferative activity IC50 (μM) ± SD
Excerpt: Several cancer cell lines were used: breast cancer cells (MDA-MB-231 (ATTCC® Number HTB-26™), MDA-MB-436 (ATTCC® Number HTB-130™), MDA-MB-438, BT-474 (ATTCC® Number HTB-20™)); cervical cancer cells (HeLa (ATTCC® Number CCL-2™)); colon cancer cells (HCT-116 (ATTCC® Number CCL-247™) and HT-29 (ATTCC® Number HTB-38™)); osteosarcoma cells (U2OS (ATTCC® Number HTB-96™)); pancreas cancer cells (MIA PaCa-2 (ATTCC® Number CRL-1420™) and Panc-10.5 (ATTCC® Number CRL-2547™)); prostate cancer cells (PC-3 (ATTCC® Number CRL-1435™) and LNCaP (ATTCC® Number CRL-1740™)); brain cancer cells (U87 glioblastoma (ATTCC® Number HTB-14™) and SH-SYSY neuroblastoma (ATTCC® Number CRL-2266™)). […]
After observation of cells under the microscope, old media were removed and the adherent cells washed gently twice with PBS (Phosphate Buffer Saline, —Ca^2+, —Mg^2+, Lonza cat no: 17-512F/12). […] 50 μl of this solution were transferred in 20 μl of isotonic solution and the cells were counted by count cellular (Beckman Coulter). […]
as §3

A549 = assay: WST-1 proliferation assay, A549; conditions: Homo sapiens; Lung A549; read-out: Anti-proliferative activity IC50 (μM) ± SD
Procedure: as §1, §2, §3, §4

Row | Structure (SMILES) | formation of new blood vessels (tube formation) (HUVEC cells) | IC50 (ERY-1) [µM] | IC50 (BT-474) [µM] | IC50 (A549) [µM]
1 | Cc1ccc(-c2nc3ccccc3[nH]2)cc1NC(=S)NC(=O)c1ccc2c(c1)OCCO2 [Compound 1, N-[5-(1H-benzimidazol-2-yl)-2-methylphenyl]-N′-(2,3-dihydro-1,4-benzodioxin-6-ylcarbonyl)thiourea] | inhibited the tube formation; also recorded: effectively inhibited | 0.3 ± 0.04 | 2 | 0.4 ± 0.04
2 | O=C(NC(=S)Nc1cccc(-c2nc3ccccc3[nH]2)c1)c1ccc2c(c1)OCCO2 [Compound 2, N-[3-(1H-benzimidazol-2-yl)phenyl]-N′-(2,3-dihydro-1,4-benzodioxin-6-ylcarbonyl)thiourea] | inhibited the tube formation; also recorded: effectively inhibited | 0.1 ± 0.05 | 1.6 ± 0.06 | 0.1 ± 0.04
